Experimental data: EP0259014A2, “5-Deoxy-5-fluorokanamycin B derivatives and processes for the production thereof” (ZAIDAN HOJIN BISEIBUTSU KAGAKU KENKYU KAI, priority 1986, dated 1988)
In brackets after ≈: the same amount, converted by molar mass. Like-named read-outs stand apart in the source and are kept apart here.

Assays:
Assay type in all cases: cell-based
[1] = test system: Staphylococcus aureus 209P; assay: MIC, serial dilution on Mueller Hinton agar
[2] = test system: Staphylococcus aureus Ap01; assay: MIC, serial dilution on Mueller Hinton agar
Bacillus subtilis PCI219 = assay: MIC, serial dilution on Mueller Hinton agar
[3] = test system: Corynebacterium bovis 1810; assay: MIC, serial dilution on Mueller Hinton agar
Escherichia coli K-12 R5 = assay: MIC, serial dilution on Mueller Hinton agar; settings: K12R5, 18 h
[4] = test system: Escherichia coli K-12 ML 1629; assay: MIC, serial dilution on Mueller Hinton agar; settings: K12ML1629, Escherichia coli K-12 ML 1629, resistance mechanism APH(3')-I, 37°C, 18 hours
[5] = test system: Escherichia coli K-12 LA 290 R55; assay: MIC, serial dilution on Mueller Hinton agar; settings: for MIC: Escherichia coli, K12LA290R55, 18 h
[6] = test system: Escherichia coli JR66/W677; assay: microbe, parasite or virus in culture; settings: JR66/W677, 18 h
[7] = test system: Klebsiella pneumoniae 22#3038; assay: MIC, serial dilution on Mueller Hinton agar; settings: Klebsiella pneumoniae 22#3038, resistance mechanism APH(3')-II, ANT(2"), 37°C, 18 hours
Description: The antibacterial spectra so determined of the new compounds No. 1 to No. 13 (each in the form of the free base) of this invention are as shown in Table 1 below.

Serratia marcescens = assay: MIC, serial dilution on Mueller Hinton agar
[8] = test system: Pseudomonas aeruginosa A3; assay: MIC, serial dilution on Mueller Hinton agar
[9] = test system: Pseudomonas aeruginosa GN 315; assay: MIC, serial dilution on Mueller Hinton agar; settings: GN315; Pseudomonas aeruginosa GN 315, resistance mechanism AAC(6'); Mueller Hinton agar, 37°C, 18 hours; read-out: MIC.
Escherichia coli K-12 = assay: MIC, serial dilution on Mueller Hinton agar; settings: K12; Escherichia coli K-12; Mueller Hinton agar, 37°C, 18 hours; read-out: MIC.
Escherichia coli JR225 = assay: microbe, parasite or virus in culture; settings: for MIC: Escherichia coli, JR225, 18 h
Mycobacterium 607 = assay: MIC, serial dilution on Mueller Hinton agar
Proteus rettgeri GN 311 = assay: MIC, serial dilution on Mueller Hinton agar; settings: Providencia rettgeri, GN311; Proteus rettgeri GN 311; Mueller Hinton agar, 37°C, 18 hours; read-out: MIC.
Providencia sp. Pv 16 = assay: MIC, serial dilution on Mueller Hinton agar
[10] = Mueller Hinton agar, 37°C, 18 hours, read-out: MIC.
[11] = Staphylococcus aureus 209P, Mueller Hinton agar, 37°C, 18 hours, read-out: MIC.
[12] = Staphylococcus aureus Ap01, resistance mechanism ANT(4'), Mueller Hinton agar, 37°C, 18 hours, read-out: MIC.
[13] = Bacillus subtilis PCI219, Mueller Hinton agar, 37°C, 18 hours, read-out: MIC.
[14] = Corynebacterium bovis 1810, Mueller Hinton agar, 37°C, 18 hours, read-out: MIC.
[15] = Mycobacterium 607, Mueller Hinton agar, 37°C, incubated for 40 hours, read-out: MIC.
[16] = Pseudomonas aeruginosa A3, Mueller Hinton agar, 37°C, 18 hours, read-out: MIC.
[17] = SP.PV16, Providencia sp. Pv 16, resistance mechanism AAC(2'), Mueller Hinton agar, 37°C, 18 hours, read-out: MIC.

| Compound | MIC (Escherichia coli K-12 R5) [µg/mL] | MIC [4] [µg/mL] | MIC [5] [µg/mL] | MIC [6] [µg/mL] | MIC [7] [µg/mL] | MIC (Serratia marcescens; [10]) [µg/mL] | MIC [9] [µg/mL] | MIC [1, 11] [µg/mL] | MIC [2, 12] [µg/mL] | MIC (Bacillus subtilis PCI219; [13]) [µg/mL] | MIC [3, 14] [µg/mL] | MIC (Escherichia coli K-12) [µg/mL] | MIC (Escherichia coli JR225) [µg/mL] | MIC (Mycobacterium 607; [15]) [µg/mL] | MIC (Proteus rettgeri GN 311) [µg/mL] | MIC (Providencia sp. Pv 16; Providencia, SP.PV16, 18 h) [µg/mL] | MIC [8, 16] [µg/mL] | MIC (Providencia sp. Pv 16; [17]) [µg/mL] | further results |
| --- | --- | --- | --- | --- | --- | --- | --- | --- | --- | --- | --- | --- | --- | --- | --- | --- | --- | --- | --- |
| NCC[C@H](O)C(=O)N[C@@H]1C[C@H](N)[C@@H](O[C@H]2O[C@H](CN)[C@@H](O)[C@H](O)[C@H]2O)[C@H](O)[C@H]1O[C@H]1O[C@H](CO)[C@@H](O)[C@H](N)[C@H]1O [AMK, 1-N-(4-amino-2-(S)-hydroxybutyryl)-kanamycin A, reference compound] | 25 (≈ 42.7 µM) | 1.56 (≈ 2.66 µM) | 1.56 (≈ 2.66 µM) | 3.12 (≈ 5.33 µM) | 3.12 (≈ 5.33 µM) | 6.25 (≈ 10.7 µM) | 25 (≈ 42.7 µM) | – | – | – | – | – | – | – | – | – | – | – | MIC ([1]; Staphylococcus aureus, 209P, 18 h): 1.56 µg/mL (≈ 2.66 µM); MIC ([2]; Staphylococcus aureus, AP01, 18 h): 3.12 µg/mL (≈ 5.33 µM); MIC (Bacillus subtilis PCI219; Bacillus subtilis, PCI219, 18 h): 1.56 µg/mL (≈ 2.66 µM); MIC ([3]; Corynebacterium bovis, 1810, 18 h): 1.56 µg/mL (≈ 2.66 µM); MIC ([8]; Pseudomonas aeruginosa, A3, 18 h): 1.56 µg/mL (≈ 2.66 µM) |
| NC[C@H]1O[C@H](O[C@H]2[C@H](F)[C@@H](O[C@H]3O[C@H](CO)[C@@H](O)[C@H](N)[C@H]3O)[C@H](N)C[C@@H]2N)[C@H](N)[C@@H](O)[C@@H]1O [Compound No. 1, 5-Deoxy-5-fluorokanamycin B] | 100 (≈ 206 µM) | > 100 | 3.12 (≈ 6.43 µM) | > 100 | > 100 | 6.25 (≈ 12.9 µM) | 100 (≈ 206 µM) | 0.39 (≈ 0.803 µM) | 25 (≈ 51.5 µM) | 0.39 (≈ 0.803 µM) | 0.78 (≈ 1.61 µM) | 0.78 (≈ 1.61 µM) | 0.78 (≈ 1.61 µM) | 1.56 (≈ 3.21 µM) | < 0.2 | 3.12 (≈ 6.43 µM) | 1.56 (≈ 3.21 µM) | – | antibacterial activity ([5]; Escherichia coli K-12 LA290 R55, resistant strain having the enzyme for adenylating the 2"-hydroxyl group of kanamycin B): significantly active; antibacterial activity (Escherichia coli JR225; Escherichia coli JR 225, resistant strain having the enzyme for acetylating the 3-hydroxyl group of kanamycin B): significantly active; antibacterial activity (Providencia sp. Pv 16; Providensia Pv 16, resistant strain having the enzyme for acetylating the 2'-amino group of kanamycin B): significantly active |
| NC[C@@H]1C[C@H](O)[C@@H](N)[C@@H](O[C@H]2[C@H](F)[C@@H](O[C@H]3O[C@H](CO)[C@@H](O)[C@H](N)[C@H]3O)[C@H](N)C[C@@H]2N)O1 [Compound No. 3, 5,4'-Dideoxy-5-fluorokanamycin B] | 100 (≈ 213 µM) | > 100 | 6.25 (≈ 13.3 µM) | > 100 | > 100 | 12.5 (≈ 26.6 µM) | 100 (≈ 213 µM) | 0.39 (≈ 0.831 µM) | 0.78 (≈ 1.66 µM) | 0.39 (≈ 0.831 µM) | 0.78 (≈ 1.66 µM) | 1.56 (≈ 3.32 µM) | 6.25 (≈ 13.3 µM) | 3.12 (≈ 6.65 µM) | 0.2 (≈ 0.426 µM) | 6.25 (≈ 13.3 µM) | 3.12 (≈ 6.65 µM) | – | – |
| NC[C@H](O)C(=O)N[C@@H]1C[C@H](N)[C@@H](O[C@H]2O[C@H](CN)[C@@H](O)[C@H](O)[C@H]2N)[C@H](F)[C@H]1O[C@H]1O[C@H](CO)[C@@H](O)[C@H](N)[C@H]1O [Compound No. 5, 1-N-(3-Amino-2-(S)-hydroxypropionyl)-5-deoxy-5-fluorokanamycin B] | 12.5 (≈ 21.8 µM) | 0.78 (≈ 1.36 µM) | 1.56 (≈ 2.72 µM) | 1.56 (≈ 2.72 µM) | 3.12 (≈ 5.45 µM) | – | 6.25 (≈ 10.9 µM) | 0.39 (≈ 0.681 µM) | 6.25 (≈ 10.9 µM) | 0.78 (≈ 1.36 µM) | < 0.2 | < 0.2 | 0.2 (≈ 0.349 µM) | 6.25 (≈ 10.9 µM) | < 0.2 | – | 0.2 (≈ 0.349 µM) | 0.78 (≈ 1.36 µM) | MIC (Serratia marcescens; 18 h): 1.56 µg/mL (≈ 2.72 µM) |
| NCC[C@H](O)C(=O)N[C@@H]1C[C@H](N)[C@@H](O[C@H]2O[C@H](CN)[C@@H](O)[C@H](O)[C@H]2N)[C@H](F)[C@H]1O[C@H]1O[C@H](CO)[C@@H](O)[C@H](N)[C@H]1O [Compound No. 6, 1-N-(4-Amino-2-(S)-hydroxybutyryl)-5-deoxy-5-fluorokanamycin B] | 12.5 (≈ 21.3 µM) | 0.78 (≈ 1.33 µM) | 0.78 (≈ 1.33 µM) | 0.78 (≈ 1.33 µM) | 3.12 (≈ 5.32 µM) | 1.56 (≈ 2.66 µM) | 6.25 (≈ 10.7 µM) | 0.39 (≈ 0.665 µM) | 6.25 (≈ 10.7 µM) | 0.39 (≈ 0.665 µM) | < 0.2 | < 0.2 | < 0.2 | – | < 0.2 | – | < 0.2 | 0.78 (≈ 1.33 µM) | MIC (Mycobacterium 607; Mycobacterium, 607, 40 h): 12.5 µg/mL (≈ 21.3 µM) |
| NC[C@@H]1CC[C@@H](N)[C@@H](O[C@H]2[C@H](O)[C@@H](O[C@H]3O[C@H](CO)[C@@H](O)[C@H](N)[C@H]3O)[C@H](N)C[C@@H]2N)O1 [DKB, 3',4'-dideoxykanamycin B, reference compound] | 50 (≈ 111 µM) | – | 50 (≈ 111 µM) | – | 50 (≈ 111 µM) | – | – | 0.39 (≈ 0.864 µM) | – | 0.39 (≈ 0.864 µM) | – | 0.2 (≈ 0.443 µM) | 100 (≈ 221 µM) | 1.56 (≈ 3.45 µM) | 0.2 (≈ 0.443 µM) | – | 0.2 (≈ 0.443 µM) | – | – |
